# Patent publication US20140135319A1, “6-SUBSTITUTED IMIDAZOPYRAZINES FOR USE AS MPS-1 AND TKK INHIBITORS IN THE TREATMENT OF HYPERPROLIFERATIVE DISORDERS” (BAYER INTELLECTUAL PROPERTY GMBH, priority 2010, published 2014)
# Biological target: T1, human kinase Mps-1 (Homo sapiens, UniProt P33981)
# T1 construct: N-terminally GST-tagged human full length recombinant Mps-1 kinase; GST (N); purchased Invitrogen, Karslruhe, Germany PV4071
# T1 sequence (P33981 1-857): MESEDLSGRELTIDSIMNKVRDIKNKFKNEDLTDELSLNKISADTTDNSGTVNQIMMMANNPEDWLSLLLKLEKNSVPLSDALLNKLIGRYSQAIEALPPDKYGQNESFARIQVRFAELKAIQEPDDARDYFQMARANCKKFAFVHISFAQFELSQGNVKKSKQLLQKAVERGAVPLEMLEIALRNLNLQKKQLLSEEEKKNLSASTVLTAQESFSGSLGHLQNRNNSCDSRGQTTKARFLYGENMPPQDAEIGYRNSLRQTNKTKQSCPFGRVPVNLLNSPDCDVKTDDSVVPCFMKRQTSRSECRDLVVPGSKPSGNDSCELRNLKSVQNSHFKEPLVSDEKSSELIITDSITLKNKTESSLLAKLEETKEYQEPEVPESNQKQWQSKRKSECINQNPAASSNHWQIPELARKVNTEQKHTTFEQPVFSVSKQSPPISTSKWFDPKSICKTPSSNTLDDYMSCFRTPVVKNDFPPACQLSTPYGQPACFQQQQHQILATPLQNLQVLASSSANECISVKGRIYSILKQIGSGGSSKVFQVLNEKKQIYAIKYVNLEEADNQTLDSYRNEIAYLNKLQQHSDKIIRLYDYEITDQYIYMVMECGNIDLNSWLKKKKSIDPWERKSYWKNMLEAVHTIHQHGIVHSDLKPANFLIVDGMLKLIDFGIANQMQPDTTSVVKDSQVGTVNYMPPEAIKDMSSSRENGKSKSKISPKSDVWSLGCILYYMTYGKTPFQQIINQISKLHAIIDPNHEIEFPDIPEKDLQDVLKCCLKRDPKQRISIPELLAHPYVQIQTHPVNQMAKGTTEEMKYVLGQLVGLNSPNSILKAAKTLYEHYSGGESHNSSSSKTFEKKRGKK
# Test: Mps-1 kinase assay (TR-FRET)
# Format: biochemical
# Settings: GST-tagged human full length recombinant Mps-1; 10 μM ATP; 1 μM peptide substrate; 60 min at 22° C.
# Procedure: The human kinase Mps-1 phosphorylates a biotinylated substrate peptide. Detection of the phosphorylated product is achieved by time-resolved fluorescence resonance energy transfer (TR-FRET) from Europium-labelled anti-phospho-Serine/Threonine antibody as donor to streptavidin labelled with cross-linked allophycocyanin (SA-XLent) as acceptor. Compounds are tested for their inhibition of the kinase activity.
# N-terminally GST-tagged human full length recombinant Mps-1 kinase (purchased from Invitrogen, Karslruhe, Germany, cat. no PV4071) was used. As substrate for the kinase reaction a biotinylated peptide of the amino-acid sequence […] (C-terminus in amide form, purchased from Biosynthan GmbH, Berlin) was used.
# The concentration of Mps-1 in the assay was adjusted to the activity of the enzyme lot and was chosen appropriate to have the assay in the linear range, typical enzyme concentrations were in the range of about 1 nM (final conc. in the 5 μl assay volume).
# The resulting mixture was incubated 1 h at 22° C. to allow the binding of the phosphorylated peptide to the anti-phospho(Ser/Thr)-Europium-antibody. Subsequently the amount of phosphorylated substrate was evaluated by measurement of the resonance energy transfer from the Europium-labelled anti-phospho(Ser/Thr) antibody to the Streptavidin-XLent. Therefore, the fluorescence emissions at 620 nm and 665 nm after excitation at 350 nm was measured in a Viewlux TR-FRET reader (PerkinElmer LAS, Rodgau-Jügesheim, Germany). The “blank-corrected normalized ratio” (a Viewlux specific readout, similar to the traditional ratio of the emissions at 665 nm and at 622 nm, in which blank and Eu-donor crosstalk are subtracted from the 665 nm signal before the ratio is calculated) was taken as the measure for the amount of phosphorylated substrate.
row,SMILES,IC50
1,"CC(C)CNc1nc(-c2ccncc2)cn2c(-c3ccc(C(=O)NC4CC4)c(Cl)c3)cnc12 [Example 1-32, 2-chloro-N-cyclopropyl-4-{8-[(2-methylpropyl)amino]-6-(pyridin-4-yl)imidazo[1,2-a]pyrazin-3-yl}benzamide]",6.2 nM
2,"O=C(NC1CC1)c1ccc(-c2cnc3c(NCC4CCCO4)nc(-c4ccoc4)cn23)cc1F (centres unmarked) [Example 1-62, N-cyclopropyl-2-fluoro-4-{6-(furan-3-yl)-8-[(tetrahydrofuran-2-ylmethyl)amino]imidazo [1,2-a]pyrazin-3-yl} benzamide]",18.3 nM
3,"CC(C)CNc1nc(-c2ccccc2)cn2c(-c3ccc(C(=O)NC4CC4(C)C)cc3)cnc12 (centres unmarked) [Example 2-1, N-(2,2-dimethylcyclopropyl)-4-{8-[(2-methylpropyl)amino]-6-phenylimidazo[1,2-a]pyrazin-3-yl}benzamide]",162 nM
4,"Cn1nccc1CNc1nc(-c2ccn[nH]2)cn2c(-c3ccc(C(=O)NC4CC4)c(F)c3)cnc12 [Example 1-66, N-cyclopropyl-2-fluoro-4-[8-{[(1-methyl-1H-pyrazol-5-yl)methyl]amino}-6-(1H-pyrazol-5-yl)imidazo[1,2-a]pyrazin-3-yl]benzamide]",30.5 nM
5,"CC(C)CNc1nc(-c2ccoc2)cn2c(-c3ccc(C(=O)NC4CC4)c(F)c3)cnc12 [Example 1-50, N-cyclopropyl-2-fluoro-4-{6-(furan-3-yl)-8-[(2-methylpropyl)amino]imidazo[1,2-a]pyrazin-3-yl}benzamide]",9.2 nM
6,"Cn1nccc1CNc1nc(-c2ccoc2)cn2c(-c3ccc(C(=O)NC4CC4)c(F)c3)cnc12 [Example 1-65, N-cyclopropyl-2-fluoro-4-[6-(furan-3-yl)-8-{[(1-methyl-1H-pyrazol-5-yl)methyl]amino}imidazo [1,2-a]pyrazin-3-yl] benzamide]",4.3 nM
7,"Cc1cc(-c2cnc3c(NCCC(F)(F)F)nc(-c4cncnc4)cn23)ccc1C(=O)NC1CC1 [Example 1-73, N-cyclopropyl-2-methyl-4-{6-(pyrimidin-5-yl)-8-[(3,3,3-trifluoropropyl)amino]imidazo[1,2-a]pyrazin-3-yl}benzamide]",21.4 nM
8,"CC(C)(O)CNc1nc(-c2ccncc2)cn2c(-c3ccc(C(=O)NC4CC4)c(F)c3)cnc12 [Example 1-57, N-cyclopropyl-2-fluoro-4-{8-[(2-hydroxy-2-methylpropyl)amino]-6-(pyridin-4-yl)imidazo [1,2-a]pyrazin-3-yl} benzamide]",24.1 nM
9,"NC(=O)Cc1cccc(-c2cn3c(-c4ccc(C(=O)NC5CC5)cc4)cnc3c(NCCCO)n2)c1 [Example 1-89, 4-{6-[3-(2-amino-2-oxo-ethyl)phenyl]-8-[(3-hydroxy-propyl)amino]imidazo[1,2-a]pyrazin-3-yl}-N-cyclopropyl-benzamide]",4.8 nM

# Other lines, results leading:
row,IC50,SMILES
1,< 1 nM,"Cc1cc(-c2cnc3c(NCC(C)(C)O)nc(Sc4ccccc4)cn23)ccc1C(=O)NC1CC1 [Example 15-1, N-cyclopropyl-4-{8-[(2-hydroxy-2-methylpropyl)amino]-6-(phenylsulfanyl)imidazo[1,2-a]pyrazin-3-yl}-2-methylbenzamide]"
2,14.2 nM,"C=CCOC(=O)CCCNc1nc(-c2ccccc2)cn2c(-c3ccc(C(=O)NC4CC4)cc3)cnc12 [Example 3-44, Allyl 4-({3-[4-(cyclopropylcarbamoyl)phenyl]-6-phenylimidazo[1,2-a]pyrazin-8-yl}amino)butanoate]"
3,44.8 nM,"Cc1cc(-c2cnc3c(NCC4CC(=O)N(C)C4)nc(C4=CCOCC4)cn23)ccc1C(=O)NC1CC1 (centres unmarked) [Example 6-15, N-cyclopropyl-4-[6-(3,6-dihydro-2H-pyran-4-yl)-8-{[(1-methyl-5-oxopyrrolidin-3-yl)methyl]amino}imidazo[1,2-a]pyrazin-3-yl]-2-methylbenzamide]"
4,9.9 nM,"CC(C)CNc1nc(C(N)=O)cn2c(-c3ccc(C(=O)NC4CC4)cc3)cnc12 [Example 14-1, 3-[4-(cyclopropylcarbamoyl)phenyl]-8-[(2-methylpropyl)amino]imidazo[1,2-a]pyrazine-6-carboxamide]"
5,4.6 nM,"O=C(NC1CC1)c1ccc(-c2cnc3c(NCc4ccccn4)nc(-c4ccncc4)cn23)cc1 [Example 3-17, N-cyclopropyl-4-{6-(pyridin-4-yl)-8-[(pyridin-2-ylmethyl)amino]imidazo [1,2-a]pyrazin-3-yl} benzamide]"
6,1.5 nM,"Cc1cc(-c2cnc3c(NCC(C)C)nc(-c4ccncc4)cn23)ccc1C(=O)NC1CC1 [Example 6-1, N-cyclopropyl-2-methyl-4-{8-[(2-methylpropyl)amino]-6-(pyridin-4-yl)imidazo[1,2-a]pyrazin-3-yl}benzamide]"
7,42.2 nM,"CC(C)CNc1nc(CCCN(C)C)cn2c(-c3ccc(C(=O)NC4CC4)cc3)cnc12 [Example 7-2, N-cyclopropyl-4-{6-[3-(dimethylamino)propyl]-8-[(2-methylpropyl)amino]imidazo[1,2-a]pyrazin-3-yl}benzamide]"
8,1.9 nM,"O=C(NC1CC1)c1ccc(-c2cnc3c(NCc4ccc(F)cc4)nc(-c4ccncc4)cn23)cc1 [Example 3-10, N-cyclopropyl-4-{8-[(4-fluorobenzyl)amino]-6-(pyrdin-4-yl)imidazo [1,2-a]pyrazin-3-yl} benzamide]"
9,2.1 nM,"CCCNc1nc(-c2ccncc2)cn2c(-c3ccc(C(=O)NC4CC4)cc3)cnc12 [Example 3-3, N-cyclopropyl-4-[8-(propylamino)-6-(pyridin-4-yl)imidazo[1,2-a]pyrazin-3-yl]benzamide]"
10,9.3 nM,"Cc1cc(-c2cnc3c(NCC(C)C)nc(C4=CCOCC4)cn23)ccc1C(=O)NC1CC1 [Example 6-5, N-cyclopropyl-4-{6-(3,6-dihydro-2H-pyran-4-y1)-8-[(2-methylpropyl)amino]imidazo[1,2-a]pyrazin-3-yl}-2-methylbenzamide]"
11,3.7 nM,"C=C(C)CNc1nc(-c2ccccc2)cn2c(-c3ccc(C(=O)NC4CC4)cc3)cnc12 [Example 3-40, N-Cyclopropyl-4-{8-[(2-methylprop-2-en-1-yl)amino]-6-phenylimidazo[1,2-a]pyrazin-3-yl}benzamide]"
12,4.1 nM,"O=C(NC1CC1)c1ccc(-c2cnc3c(NCc4cccs4)nc(-c4ccncc4)cn23)cc1 [Example 3-1, N-cyclopropyl-4-{6-(pyridin-4-yl)-8-[(thiophen-2-ylmethyl)amino]imidazo[1,2-a]pyrazin-3-yl}benzamide]"
13,19.3 nM,"O=C(NC1CC1)c1ccc(-c2cnc3c(NC[C@@H](O)CO)nc(-c4ccncc4)cn23)cc1 [Example 3-37, N-cyclopropyl-4-{8-[(2,3-dihydroxypropyl)amino]-6-(pyridin-4-yl)imidazo [1,2-a]pyrazin-3-yl}benzamide]"
14,1 nM,CC(C)CNc1nc(Oc2ccccc2)cn2c(-c3ccc(C(=O)NC4CC4)cc3)cnc12 [Example 13-1]
15,1.1 nM,"O=C(NC1CC1)c1ccc(-c2cnc3c(NCCC(F)(F)F)nc(-c4ccncc4)cn23)cc1 [Example 3-22, N-cyclopropyl-4-{6-(pyridin-4-yl)-8-[(3,3,3-trifluoropropyl)amino]imidazo[1,2-a]pyrazin-3-yl}benzamide]"
16,5.6 nM,"Cn1cc(CNc2nc(-c3ccncc3)cn3c(-c4ccc(C(=O)NC5CC5)cc4)cnc23)cn1 [Example 3-29, N-cyclopropyl-4-[8-{[(1-methyl-1H-pyrazol-4-yl)methyl]amino}-6-(pyridin-4-yl)imidazo [1,2-a]pyrazin-3-yl] benzamide]"
17,1.5 nM,"CC(C)CNc1nc(C2CCOCC2)cn2c(-c3ccc(C(=O)NC4CC4)cc3)cnc12 [Example 7-4, N-cyclopropyl-4-{8-[(2-methylpropyl)amino]-6-(tetrahydro-2H-pyran-4-yl)imidazo[1,2-a]pyrazin-3-yl}benzamide]"
